# Test results published in PubChem BioAssay (NCI).
#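 The compound was tested at five concentrations on cells cultured in 96-well plates, with a 48-hour exposure period. TGI: concentration producing complete growth inhibition.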
# What was measured:
# Assay in all cases: growth of human tumour cells (NCI), 48 h
# 786-0 renal = tested on: 786-0 renal
# A498 renal = tested on: A498 renal
# A549 NSCLC = tested on: A549 NSCLC
# ACHN renal = tested on: ACHN renal
# CCRF-CEM leukemia = tested on: CCRF-CEM leukemia
# COLO 205 colon = tested on: COLO 205 colon
# DLD-1 colon = tested on: DLD-1 colon
# DMS 114 small cell lung = tested on: DMS 114 small cell lung
# DMS 273 small cell lung = tested on: DMS 273 small cell lung
# EKVX NSCLC = tested on: EKVX NSCLC
# HCC-2998 colon = tested on: HCC-2998 colon
# HCT-116 colon = tested on: HCT-116 colon
# HCT-15 colon = tested on: HCT-15 colon
# HL-60(TB) leukemia = tested on: HL-60(TB) leukemia
# HOP-62 NSCLC = tested on: HOP-62 NSCLC
# HT29 colon = tested on: HT29 colon
# IGROV1 ovarian = tested on: IGROV1 ovarian
# K-562 leukemia = tested on: K-562 leukemia
# KM20L2 colon = tested on: KM20L2 colon
# LOX IMVI melanoma = tested on: LOX IMVI melanoma
# LXFL 529 NSCLC = tested on: LXFL 529 NSCLC
# M14 melanoma = tested on: M14 melanoma
# MALME-3M melanoma = tested on: MALME-3M melanoma
# MOLT-4 leukemia = tested on: MOLT-4 leukemia
# NCI-H23 lung = tested on: NCI-H23 lung
# NCI-H460 lung = tested on: NCI-H460 lung
# OVCAR-3 ovarian = tested on: OVCAR-3 ovarian
# OVCAR-4 ovarian = tested on: OVCAR-4 ovarian
# OVCAR-8 ovarian = tested on: OVCAR-8 ovarian
# RPMI-8226 leukemia = tested on: RPMI-8226 leukemia
# RXF 393 renal = tested on: RXF 393 renal
# RXF-631 renal = tested on: RXF-631 renal
# SF-268 CNS = tested on: SF-268 CNS
# SF-295 CNS = tested on: SF-295 CNS
# SF-539 CNS = tested on: SF-539 CNS
# SK-MEL-2 melanoma = tested on: SK-MEL-2 melanoma
# SK-MEL-28 melanoma = tested on: SK-MEL-28 melanoma
# SK-MEL-5 melanoma = tested on: SK-MEL-5 melanoma
# SN12C renal = tested on: SN12C renal
# SNB-19 CNS = tested on: SNB-19 CNS
# SNB-75 CNS = tested on: SNB-75 CNS
# SR leukemia = tested on: SR leukemia
# SW-620 colon = tested on: SW-620 colon
# TK-10 renal = tested on: TK-10 renal
# U251 CNS = tested on: U251 CNS
# UACC-257 melanoma = tested on: UACC-257 melanoma
# UACC-62 melanoma = tested on: UACC-62 melanoma
# UO-31 renal = tested on: UO-31 renal
# XF 498 CNS = tested on: XF 498 CNS
# CAKI-1 renal = tested on: CAKI-1 renal
# HOP-92 NSCLC = tested on: HOP-92 NSCLC
# KM12 colon = tested on: KM12 colon
# NCI-H226 lung = tested on: NCI-H226 lung
# NCI-H522 lung = tested on: NCI-H522 lung
# OVCAR-5 ovarian = tested on: OVCAR-5 ovarian
# SK-OV-3 ovarian = tested on: SK-OV-3 ovarian
smiles,measurement,setting,value
CC(C)c1cccc(C(C)C)c1NC(=S)N=Nc1cc(C(C)(C)C)c(O)c(C(C)(C)C)c1,TGI,786-0 renal,35.7 µM
same,TGI,A498 renal,34.4 µM
same,TGI,A549 NSCLC,45.6 µM
same,TGI,ACHN renal,> 100 µM
same,TGI,CCRF-CEM leukemia,66.6 µM
same,TGI,COLO 205 colon,44.6 µM
same,TGI,DLD-1 colon,> 100 µM
same,TGI,DMS 114 small cell lung,55.5 µM
same,TGI,DMS 273 small cell lung,> 100 µM
same,TGI,EKVX NSCLC,> 100 µM
same,TGI,HCC-2998 colon,54.3 µM
same,TGI,HCT-116 colon,13.1 µM
same,TGI,HCT-15 colon,> 100 µM
same,TGI,HL-60(TB) leukemia,65.9 µM
same,TGI,HOP-62 NSCLC,32.3 µM
same,TGI,HT29 colon,> 100 µM
same,TGI,IGROV1 ovarian,62.6 µM
same,TGI,K-562 leukemia,78.8 µM
same,TGI,KM20L2 colon,58.6 µM
same,TGI,LOX IMVI melanoma,34.2 µM
same,TGI,LXFL 529 NSCLC,> 100 µM
same,TGI,M14 melanoma,84.3 µM
same,TGI,MALME-3M melanoma,63.8 µM
same,TGI,MOLT-4 leukemia,> 100 µM
same,TGI,NCI-H23 lung,31.8 µM
same,TGI,NCI-H460 lung,67.8 µM
same,TGI,OVCAR-3 ovarian,52.2 µM
same,TGI,OVCAR-4 ovarian,43.1 µM
same,TGI,OVCAR-8 ovarian,38 µM
same,TGI,RPMI-8226 leukemia,85.9 µM
same,TGI,RXF 393 renal,30.9 µM
same,TGI,RXF-631 renal,> 100 µM
same,TGI,SF-268 CNS,> 100 µM
same,TGI,SF-295 CNS,> 100 µM
same,TGI,SF-539 CNS,39 µM
same,TGI,SK-MEL-2 melanoma,35.8 µM
same,TGI,SK-MEL-28 melanoma,95.7 µM
same,TGI,SK-MEL-5 melanoma,37.3 µM
same,TGI,SN12C renal,52.4 µM
same,TGI,SNB-19 CNS,48.5 µM
same,TGI,SNB-75 CNS,58 µM
same,TGI,SR leukemia,> 100 µM
same,TGI,SW-620 colon,78 µM
same,TGI,TK-10 renal,71.5 µM
same,TGI,U251 CNS,30.1 µM
same,TGI,UACC-257 melanoma,43.7 µM
same,TGI,UACC-62 melanoma,50 µM
same,TGI,UO-31 renal,74.7 µM
same,TGI,XF 498 CNS,43.3 µM
S=C(N/N=C/c1ccccc1)NC12CC3CC(CC(C3)C1)C2,TGI,786-0 renal,> 100 µM
same,TGI,A498 renal,> 100 µM
same,TGI,A549 NSCLC,> 100 µM
same,TGI,ACHN renal,> 100 µM
same,TGI,CAKI-1 renal,> 100 µM
same,TGI,CCRF-CEM leukemia,92.4 µM
same,TGI,COLO 205 colon,89.6 µM
same,TGI,DMS 273 small cell lung,67.9 µM
same,TGI,EKVX NSCLC,> 100 µM
same,TGI,HCT-116 colon,> 100 µM
same,TGI,HCT-15 colon,> 100 µM
same,TGI,HL-60(TB) leukemia,> 100 µM
same,TGI,HOP-62 NSCLC,> 100 µM
same,TGI,HOP-92 NSCLC,56.2 µM
same,TGI,HT29 colon,26.5 µM
same,TGI,IGROV1 ovarian,> 100 µM
same,TGI,K-562 leukemia,> 100 µM
same,TGI,KM12 colon,> 100 µM
same,TGI,KM20L2 colon,76.2 µM
same,TGI,LOX IMVI melanoma,45.1 µM
same,TGI,LXFL 529 NSCLC,> 100 µM
same,TGI,M14 melanoma,> 100 µM
same,TGI,MOLT-4 leukemia,74.2 µM
same,TGI,NCI-H226 lung,> 100 µM
same,TGI,NCI-H23 lung,> 100 µM
same,TGI,NCI-H460 lung,> 100 µM
same,TGI,NCI-H522 lung,> 100 µM
same,TGI,OVCAR-3 ovarian,83.4 µM
same,TGI,OVCAR-4 ovarian,> 100 µM
same,TGI,OVCAR-5 ovarian,> 100 µM
same,TGI,OVCAR-8 ovarian,> 100 µM
same,TGI,RPMI-8226 leukemia,95.5 µM
same,TGI,RXF 393 renal,> 100 µM
same,TGI,RXF-631 renal,> 100 µM
same,TGI,SF-268 CNS,> 100 µM
same,TGI,SF-295 CNS,> 100 µM
same,TGI,SF-539 CNS,> 100 µM
same,TGI,SK-MEL-2 melanoma,> 100 µM
same,TGI,SK-MEL-28 melanoma,> 100 µM
same,TGI,SK-MEL-5 melanoma,> 100 µM
same,TGI,SK-OV-3 ovarian,> 100 µM
same,TGI,SN12C renal,48.8 µM
same,TGI,SNB-19 CNS,> 100 µM
same,TGI,SR leukemia,> 100 µM
same,TGI,SW-620 colon,> 100 µM
same,TGI,TK-10 renal,> 100 µM
same,TGI,U251 CNS,> 100 µM
same,TGI,UACC-257 melanoma,> 100 µM
same,TGI,UACC-62 melanoma,> 100 µM
same,TGI,UO-31 renal,> 100 µM
same,TGI,XF 498 CNS,> 100 µM
